Non-standard residues stand in square brackets, D forms with d. Residues, ends and D or L forms follow the SMILES beside them. αMeP = C[C@@]1(C(=O)O)CCCN1
Tests used:
[1] = Pharmacokinetics after intravenous bolus injection; assay type: in vivo, rat
Method: Adult male Wistar rats weighing between 180 and 240 g were used to determine the pharmacokinetics of GPE and […]. To facilitate intravenous bolus injections and blood sampling, all rats were surgically implanted with an indwelling jugular venous cannula under halothane anesthesia three days before the experiment. Groups of six rats were given a single intravenous bolus injection of either 30 mg/kg GPE or 10 mg/kg […] dissolved in 0.1M succinate buffer (pH 6.5). […] The samples were centrifuged at 3000 g for 15 min at 4° C. and the plasma removed and stored at -80° C. until extraction and assay by either radioimmunoassay (“RIA”) or reverse phase HPLC. The RIA and HPLC methods used were conventional. […] The k and half-life (t1/2) were calculated from the slope of the linear regression line in the elimination phase of the semi-logarithmic plot of plasma concentration versus time as: Log. C=-kt/2.3+log C0. Results were expressed as mean±standard error.

[2] = system: heterozygous Shank3-deficient mice; experiment: Shank3-deficient mouse model, behavioral analyses; assay type: in vivo; details: 15 or 60 mg/kg oral b.i.d. for 14 days
From the text: Heterozygous mice generated by crossing wild-type mice with heterozygotes are used in this example to best model the haploinsufficiency of Shank3, responsible for 22q13 deletion syndrome.
1 to 3 month old wild type and heterozygous Shank3-deficient mice are divided into 4 treatment groups: placebo treated wild-type, placebo treated Shank3-deficient group and two Shank3-deficient G-2-MePE treated groups. The animals are given placebo (water) or G-2-MePE formulated in water administered orally, b.i.d for 14 days. G-2-MePE is administered at two doses: 15 or 60 mg/kg.
Behavioral assessments are made at several, time points, and include analysis of social interactions and ultrasonic social communication, in line with the methodology described by Bozdagi et al. Briefly, male-female social interactions in each treatment group are evaluated. […] Videos from the male subjects are subsequently scored by an investigator uninformed of the subject's genotype and treatment group on measures of nose-to-nose sniffing, nose-to-anogenital sniffing and sniffing of other body regions, using Noldus Observer software (Noldus Information Technology, Leesburg, Va., USA). Ultrasonic vocalizations are identified manually by two highly trained investigators blinded to genotype/treatment group information, and summary statistics are calculated using the Avisoft package. […]

## C[C@@]1(C(=O)N[C@@H](CCC(=O)O)C(=O)O)CCCN1C(=O)CN [Example G-2-MePE, Glycyl-L-2-methylprolyl-L-glutamic acid] (H-Gly-[αMeP]-Glu-OH)
[1]; 10 mg/kg single i.v. bolus, rat
  first order rate constant: 0.033 ± 0.001 min⁻¹
[1]; G-2-MePE 10 mg/kg vs GPE 30 mg/kg i.v.
  maximal plasma concentration relative to GPE: about 4.8 times
[1]; i.v., rat
  t1/2 relative to GPE: over 4 times
[2]; vs placebo treated Shank3-deficient group
  cumulative duration of total social sniffing: significant increase
[2]; vs placebo treated mutant group
  number of ultrasonic vocalizations: increased number

— patent US9212204B2, “Treatment of rett syndrome using glycyl-L-2-methylprolyl-L-glutamic acid” (priority 2011, dated 2015)
